Reference: PubChem BioAssay (NCI)
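Five compound concentrations were applied to cells in 96-well plates for 48 hours; endpoints were derived by simple linear interpolation of the resulting dose-response curve. Here, GI50 denotes the concentration required for 50% inhibition of growth. At the TGI there is no net growth.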

How the values were obtained:
Test in all cases: NCI-60 cell line screen, 48 h
MOLT-4 leukemia = tested on: MOLT-4 leukemia
SK-OV-3 ovarian = tested on: SK-OV-3 ovarian
SF-295 CNS = tested on: SF-295 CNS
HOP-92 NSCLC = tested on: HOP-92 NSCLC
KM12 colon = tested on: KM12 colon
U251 CNS = tested on: U251 CNS
SNB-19 CNS = tested on: SNB-19 CNS
OVCAR-4 ovarian = tested on: OVCAR-4 ovarian
OVCAR-3 ovarian = tested on: OVCAR-3 ovarian
TK-10 renal = tested on: TK-10 renal

OCC1OC(n2cnc3cncnc32)C(O)C1O (configuration not stated)
TGI (MOLT-4 leukemia): 5.29 µM
TGI (SK-OV-3 ovarian): 5.16 µM
TGI (SF-295 CNS): 8.32 µM
TGI (HOP-92 NSCLC): 4.21 µM
TGI (KM12 colon): 6 µM
TGI (U251 CNS): 4.58 µM
TGI (SNB-19 CNS): 4.27 µM
TGI (OVCAR-4 ovarian): 2.63 µM
TGI (OVCAR-3 ovarian): 4.94 µM

Clc1ccc(Cc2nc3ccccc3nc2-c2cccc(Br)c2)cc1
TGI (MOLT-4 leukemia): 6.84 µM
TGI (SK-OV-3 ovarian): 31.2 µM
TGI (SF-295 CNS): 31.2 µM
TGI (HOP-92 NSCLC): 1.36 µM
TGI (KM12 colon): 33.7 µM
TGI (U251 CNS): 20.9 µM
TGI (SNB-19 CNS): 3.14 µM
TGI (TK-10 renal): 30.4 µM
TGI (OVCAR-3 ovarian): 5.76 µM

N=c1oc2ccc3ccccc3c2cc1C(N)=O
TGI (MOLT-4 leukemia): > 100 µM
TGI (SK-OV-3 ovarian): > 100 µM
TGI (HOP-92 NSCLC): > 100 µM
TGI (KM12 colon): 63 µM
TGI (U251 CNS): > 100 µM
TGI (SNB-19 CNS): > 100 µM
TGI (OVCAR-4 ovarian): > 100 µM
TGI (OVCAR-3 ovarian): > 100 µM

COC(=O)C1CCC(=O)N1C(=O)Cc1ccc(OC)cc1 (configuration not stated)
TGI (SK-OV-3 ovarian): > 100 µM
TGI (SF-295 CNS): > 100 µM
TGI (HOP-92 NSCLC): > 100 µM
TGI (KM12 colon): > 100 µM
TGI (U251 CNS): > 100 µM
TGI (SNB-19 CNS): > 100 µM
TGI (OVCAR-4 ovarian): > 100 µM
TGI (TK-10 renal): > 100 µM
TGI (OVCAR-3 ovarian): > 100 µM

CCc1c(Cc2cccc3ccccc23)n2c(nc1=O)SCC2OCCO (configuration not stated)
TGI (MOLT-4 leukemia): > 100 µM
TGI (HOP-92 NSCLC): 34.7 µM
TGI (KM12 colon): > 100 µM
TGI (U251 CNS): > 100 µM
TGI (SNB-19 CNS): > 100 µM
TGI (OVCAR-4 ovarian): > 100 µM
TGI (TK-10 renal): > 100 µM

c1ccc(CCN2CCc3[nH]c4ccccc4c3C2)cc1
TGI (MOLT-4 leukemia): 70.5 µM
TGI (SK-OV-3 ovarian): > 100 µM
TGI (SF-295 CNS): 35.2 µM
TGI (HOP-92 NSCLC): 34.6 µM
TGI (KM12 colon): 34.9 µM
TGI (U251 CNS): 31.9 µM
TGI (SNB-19 CNS): 41.8 µM
TGI (OVCAR-4 ovarian): > 100 µM
TGI (TK-10 renal): 51.7 µM

CO/C(=N\N=C\c1cccc(Cl)c1)c1ccncc1
TGI (MOLT-4 leukemia): > 10 µM
TGI (SF-295 CNS): > 10 µM
TGI (HOP-92 NSCLC): > 10 µM
TGI (KM12 colon): > 10 µM
TGI (U251 CNS): > 10 µM
TGI (SNB-19 CNS): > 10 µM
TGI (OVCAR-4 ovarian): > 10 µM
TGI (TK-10 renal): > 10 µM
TGI (OVCAR-3 ovarian): > 10 µM

Clc1ccc(N2N=C(c3cccc(Nc4ccncc4)c3)CC2c2ccc3c(c2)OCO3)cc1 (configuration not stated)
GI50 (MOLT-4 leukemia): 1.97 µM
TGI (MOLT-4 leukemia): 4.58 µM
GI50 (SK-OV-3 ovarian): 4.31 µM
TGI (SK-OV-3 ovarian): 24.1 µM
GI50 (SF-295 CNS): 1.79 µM
TGI (SF-295 CNS): 3.29 µM
GI50 (HOP-92 NSCLC): 1.24 µM
TGI (HOP-92 NSCLC): 2.86 µM
GI50 (KM12 colon): 1.67 µM
TGI (KM12 colon): 3.18 µM
GI50 (SNB-19 CNS): 1.94 µM
TGI (SNB-19 CNS): 4.51 µM
GI50 (OVCAR-4 ovarian): 1.69 µM
TGI (OVCAR-4 ovarian): 3.25 µM
GI50 (OVCAR-3 ovarian): 1.63 µM
TGI (OVCAR-3 ovarian): 3.07 µM

Cn1nc2n(c1=O)CCCN2
TGI (SF-295 CNS): > 100 µM
TGI (HOP-92 NSCLC): > 100 µM
TGI (KM12 colon): > 100 µM
TGI (U251 CNS): > 100 µM
TGI (SNB-19 CNS): > 100 µM
TGI (OVCAR-4 ovarian): > 100 µM
TGI (TK-10 renal): > 100 µM
TGI (OVCAR-3 ovarian): > 100 µM

Cc1cc(O)c(C(C)C)cc1SC#N
TGI (MOLT-4 leukemia): 25.3 µM
TGI (SK-OV-3 ovarian): 37.6 µM
TGI (SF-295 CNS): 31.2 µM
TGI (HOP-92 NSCLC): 25.3 µM
TGI (KM12 colon): 31.4 µM
TGI (U251 CNS): 31.8 µM
TGI (OVCAR-4 ovarian): 28.5 µM
TGI (TK-10 renal): 31.8 µM
TGI (OVCAR-3 ovarian): 28.8 µM

CC(=O)O[C@@H]1C[C@@]23C[C@@]24CC[C@H](OC2OCC(O)C(O)C2O)C(C)(C)[C@@H]4CC=C3[C@]2(C)C[C@@H]3OC4(C[C@@H](C)[C@@H]3[C@@]12C)OC(O)[C@@]1(C)O[C@@H]41 (some centres not stated)
TGI (SK-OV-3 ovarian): 62.8 µM
TGI (SF-295 CNS): 80.6 µM
TGI (HOP-92 NSCLC): > 100 µM
TGI (KM12 colon): > 100 µM
TGI (U251 CNS): > 100 µM
TGI (SNB-19 CNS): > 100 µM
TGI (OVCAR-4 ovarian): > 100 µM
TGI (TK-10 renal): > 100 µM
TGI (OVCAR-3 ovarian): 34.5 µM
